Tested on: MDA-MB-231 human breast cancer
Test: MDA-MB-231 human breast cancer SubQ xenograft model in BALB/c nude mice
Format: in vivo
Conditions: Day 38, abemaciclib 50 mg/kg PO QD, plinabulin 7.5 mg/kg IP BIW; for mean tumor volume: n=8 per group, vehicle control 1235±24 mm^3
Description: The anti-tumor activity of plinabulin as a single agent compared to co-administration with abemaciclib was evaluated in an MDA-MB-231 human breast cancer SubQ xenograft model in BALB/c nude mice. Plinabulin was provided as a 4 mg/mL solution in 40% Solutol, 60% Propylene Glycol. […] Abemaciclib was provided as a crystalline solid. Prior to dosing, an appropriate amount of abemaciclib solid was weighed out and dissolved in 1% hydroxyethyl cellulose in 25 mM phosphate buffer, pH=2, to a concentration of 5 mg/mL to deliver a dose of 50 mg/kg in a 10 mL/kg dosing volume. […] The vehicle control was dosed intraperitoneally at a 10 mL/kg dose volume. The MDA-MB-231 human breast tumor cell line was maintained in L-15 medium supplemented with 10% FBS at 37° C. in an atmosphere of 100% air. Cells were sub-cultured upon reaching about 90% confluence by trypsin-EDTA treatment. Cells in an exponential growth phase were harvested using a trypsin-EDTA mixture. Female BALB/c nude mice were received at 6-8 weeks of age. All mice were acclimated for 7 days prior to study initiation. The mice were housed in housed in polycarbonate cages and maintained under specific pathogen-free conditions. The mice were fed irradiated dry granule food and sterile drinking water was freely available. Mice were inoculated subcutaneously on the right flank with 0.1 mL of L-15 medium/Martigel (1:1) mixture containing a suspension of 1×10^7 cells/mouse of live MDA-MB-231 tumor cells. […] Twenty-eight days following inoculation, thirty-two mice with tumor sizes of 101-124 mm^3 were randomized into four groups of eight mice, each with a mean tumor size of 114 mm^3. Tumor volumes and body weights were recorded when the mice were randomized and were taken twice weekly thereafter. Clinical observations were made daily. Dosing was performed via intraperitoneal injection for vehicle control and plinabulin and administered via oral gavage for abemaciclib as described below in Table 1. Plinabulin was administered one hour post dose of abemaciclib on combined dosing days. [table] […] All mice are included in the TGI calculations. [formula] All statistical analyses in the xenograft study are performed with GraphPad Prism software. p≤0.05 was considered statistically significant. […] A two-tailed Student's t-test with Welch's correction was also used to verify any differences between each group and the vehicle control, as well as single agents and their respective combination groups.

SMILES	TGI (tumor growth inhibition) compared to the Vehicle Control group [%]	mean tumor volume [mm^3]
CCN1CCN(Cc2ccc(Nc3ncc(F)c(-c4cc(F)c5nc(C)n(C(C)C)c5c4)n3)nc2)CC1 [abemaciclib]	59	572±101
CC(C)(C)c1[nH]cnc1/C=c1\[nH]c(=O)/c(=C/c2ccccc2)[nH]c1=O [plinabulin, (3Z,6Z)-3-benzylidene-6-{[5-(2-methyl-2-propanyl)-1H-imidazol-4-yl]methylene}-2,5-piperazinedione]	26	942±114
